Legend:
[1] = target: T1, RORγt ligand-binding domain (RORγt-LBD) (Homo sapiens, UniProt P51449); assay: Time-resolved FRET (TR-FRET) RORγt coactivator assay (RIP140 peptide displacement); type: biochemical; details: ligand-dependent coactivator-RORγt binding
T1 construct: 20 nM recombinantly expressed RORγ-LBD fused to GST
T1 sequence (P51449 269-508 limits assumed): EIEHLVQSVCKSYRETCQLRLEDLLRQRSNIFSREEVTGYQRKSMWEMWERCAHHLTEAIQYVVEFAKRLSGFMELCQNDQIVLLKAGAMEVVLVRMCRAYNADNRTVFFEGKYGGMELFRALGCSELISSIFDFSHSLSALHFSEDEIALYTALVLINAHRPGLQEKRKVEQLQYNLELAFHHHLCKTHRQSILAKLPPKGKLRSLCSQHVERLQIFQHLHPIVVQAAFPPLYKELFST
Excerpt: Time-resolved FRET (TR-FRET) RORγt coactivator assay was used to identify RORγ modulator compounds with ligand-dependent coactivator displacement. The assay uses a d2-labeled anti-GST antibody, synthetic N-terminally biotinylated peptide which is derived from nuclear receptor coactivator protein RIP140, and a RORγt ligand-binding domain (RORγt-LBD) that is tagged with glutathione-S-transferase (GST). The influence of compounds on the RORγ-peptide interaction relies on the binding dependent energy transfer from a donor to an acceptor fluorophor attached to the binding partner of interest. […] For reduction of background from compound fluorescence, TR-FRET method makes use of generic fluorophore labels and time resolved detection.
The assays were done in a final volume of 20 μl in a 384 well plate in a CHAPS buffer (2 mM CHAPS; 1 mM DTT, 2 mM EDTA; 0.1% BSA), containing 20 nM recombinantly expressed RORγ-LBD fused to GST, 30 nM N-terminally biotinylated peptide, 1 nM streptavidin-terbium conjugate and 20 nM d2 labeled-anti-GST. Test compounds were diluted using 10 mM stock solution. The range of the final compound concentrations used in this test was from 0.3 nM to 30 μM (logarithmic scale). DMSO content of the samples was kept at 1%. The assay was equilibrated for 2 hours in the dark at room temperature in 384 well plates (Falcon). The signal was detected by an Ultra384 reader (TECAN). […] Compounds that promote coactivator displacement induce a concentration-dependent decrease in time-resolved fluorescent signal. Data were collected and analyzed using GraphPad Prism software (GraphPad Software V5.02, San Diego Calif. USA). IC50 in μM and E max in % were reported for each compound.

human RORγt = target: T2, human RORγt (Homo sapiens, UniProt P51449); assay: RORE Luciferase/RORγt transactivation assay (IL-17 promoter luciferase reporter in COS-7 cells); type: cell-based; set-up: V5-His (named only through the vector pcDNA3.1D/V5-His-TOPO); expressed in transfected cells; host or cells: COS-7 (monkey kidney); details: RORγt activity inhibition, luciferase activity in transfected COS-7 cells, 20 h
T2 sequence (P51449 1-497 isoform P51449-2): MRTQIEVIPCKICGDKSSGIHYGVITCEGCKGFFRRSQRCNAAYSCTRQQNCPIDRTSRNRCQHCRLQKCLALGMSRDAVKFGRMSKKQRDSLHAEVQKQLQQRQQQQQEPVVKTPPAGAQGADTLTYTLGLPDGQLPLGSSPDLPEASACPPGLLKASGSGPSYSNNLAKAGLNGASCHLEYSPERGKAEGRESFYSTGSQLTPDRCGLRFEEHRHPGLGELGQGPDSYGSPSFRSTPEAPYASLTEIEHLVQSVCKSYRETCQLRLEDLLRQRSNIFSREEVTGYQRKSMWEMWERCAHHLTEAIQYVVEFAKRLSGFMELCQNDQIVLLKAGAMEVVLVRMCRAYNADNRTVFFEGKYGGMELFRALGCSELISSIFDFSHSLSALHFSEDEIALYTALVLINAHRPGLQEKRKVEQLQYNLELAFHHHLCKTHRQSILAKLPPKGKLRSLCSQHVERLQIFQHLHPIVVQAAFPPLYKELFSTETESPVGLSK
Method: It is well known that RORγ binds to a conserved non-coding sequence (CNS) enhancer element in the IL-17 promoter.
Culture medium was changed every 2 days.
The 4.3 Kb human IL-17 promoter containing the RORγ-specific CNS enhancer element was PCR amplified from human genomic DNA and cloned into a pGL3-TKLuc2Cp reporter plasmid.
The luciferase reporter plasmid and the RORγt overexpression plasmid were transfected into COS-7 cell line using 4 μL JetPEI™/μg of DNA. Briefly, 150 ng of DNA (ration 1/2 between RORE-Tk Luc2Cp and cDNA RORγt or the empty vector for the negative control) was served to transfect adherent COS-7 cells in a […] culture flask, in complete medium (see cos-7 cell line culture).
Cells were then detached (using trypsin) and washed by centrifugation at 300 g for 10 minutes. Cell pellet was resuspended in serum free/phenol red free DMEM and seeded in 384 well plates at a density of 10000 cells/well and then incubated for 4 h at 37° C.
Compounds were dissolved in 100% DMSO to obtain 10 mM stock solutions. For each compound, test concentrations were diluted in serum free/phenol red free DMEM using the Genesis Freedom 200™ (TECAN) and added to the cells to obtain a 0.3% DMSO final concentration (in a final volume of 40 μL per well).
The luciferase activity was then measured with 40 μL/well steady-Glo Luciferase assay system (Promega, Madison, Wis.) and after incubation at room temperature for 30 minutes. The luminescence was estimated using the Ultra384 reader (TECAN). Data were collected and analyzed using GraphPad Prism software (GraphPad Software V5.02, San Diego Calif. USA). IC50 in μM and E max in % were reported for each compound.

**Q.** With Cc1ccc(N2CCS(=O)(=O)CC2)cc1CC(=O)NC(c1ccccc1)c1ccccc1N1CCCCC1 (stereo not drawn) [Cpd. 2, 2-[5-(1,1-dioxo-1-thiomorpholin-4-yl)-2-methylphenyl]-N-{phenyl[2-(piperidin-1-yl)phenyl]methyl}acetamide] as the compound, how does the IC50 [1] read?
**A.** 1 to 10 µM

**Q.** What about the IC50 (human RORγt) of the same compound?
**A.** 1 to 10 µM

**Q.** With Cc1ccc(C(NC(=O)Cc2cc(N3CCS(=O)(=O)CC3)ccc2F)c2ccccc2)c(N2CCOCC2)c1 (stereo not drawn) [Cpd. 4, 2-[5-(1,1-dioxo-1-thiomorpholin-4-yl)-2-fluorophenyl]-N-{[4-methyl-2-(morpholin-4-yl)phenyl](phenyl)methyl}acetamide] as the compound, how does the IC50 [1] read?
**A.** 0.1 to 1 µM

**Q.** And the IC50 (human RORγt)?
**A.** 1 to 10 µM

**Q.** How did the IC50 [1] turn out when Cc1ccc(C(NC(=O)Cc2cc(N3CCS(=O)(=O)CC3)ccc2C)c2ccccc2)c(N2CCOCC2)c1 (stereo not drawn) [Cpd. 7, 2-[5-(1,1-dioxo-1-thiomorpholin-4-yl)-2-methylphenyl]-N-{[4-methyl-2-(morpholin-4-yl)phenyl](phenyl)methyl}acetamide] was run?
**A.** 0.1 to 1 µM

**Q.** And the IC50 (human RORγt)?
**A.** 1 to 10 µM

**Q.** Which IC50 [1] does the source give for Cc1ccc(C(NC(=O)Cc2cc(N3CCOCC3)ccc2F)c2ccccc2)c(N2CCCCC2)c1 (stereo not drawn) [Cpd. 8, 2-[2-fluoro-5-(morpholin-4-yl)phenyl]-N-{[4-methyl-2-(piperidin-1-yl)phenyl](phenyl)methyl}acetamide] here?
**A.** 0.1 to 1 µM

**Q.** What about the IC50 (human RORγt) of the same compound?
**A.** 1 to 10 µM

**Q.** How did the IC50 [1] turn out when COc1ccc(C(NC(=O)Cc2ccc(N3CCS(=O)(=O)CC3)c(C)c2)c2ccc(C)o2)c(N2CCC(C(F)(F)F)CC2)c1 (stereo not drawn) [Cpd. 14, 2-[4-(1,1-dioxo-1-thiomorpholin-4-yl)-3-methylphenyl]-N-({4-methoxy-2-[4-(trifluoromethyl)piperidin-1-yl]phenyl}(5-methylfuran-2-yl)methyl)acetamide] was run?
**A.** 0.1 to 1 µM

**Q.** What about the IC50 (human RORγt) of the same compound?
**A.** 0.1 to 1 µM

**Q.** Which IC50 [1] does the source give for Cc1ccc(N2CCCCC2)c(C(NC(=O)Cc2cnc(N3CCS(=O)(=O)CC3)nc2)c2ccc(C)o2)c1 (stereo not drawn) [Cpd. 17, 2-[2-(1,1-dioxo-1-thiomorpholin-4-yl)pyrimidin-5-yl]-N-{[5-methyl-2-(piperidin-1-yl)phenyl](5-methylfuran-2-yl)methyl}acetamide] here?
**A.** 0.1 to 1 µM

**Q.** What about the IC50 (human RORγt) of the same compound?
**A.** 1 to 10 µM

**Q.** With Cc1ccc(C(NC(=O)Cc2ccc(N3CCS(=O)(=O)CC3)cc2)c2ccc(C)o2)c(C(F)(F)F)c1 (stereo not drawn) [Cpd. 24, 2-[4-(1,1-dioxo-1-thiomorpholin-4-yl)phenyl]-N-{[4-methyl-2-(trifluoromethyl)phenyl](5-methylfuran-2-yl)methyl}acetamide] as the compound, how does the IC50 [1] read?
**A.** 0.1 to 1 µM

**Q.** What about the IC50 (human RORγt) of the same compound?
**A.** 1 to 10 µM

**Q.** For Cc1ccc(C(NC(=O)Cc2cnc(N3CCOCC3)nc2)c2ccc(C)o2)c(N2CCCCC2)c1 (stereo not drawn) [Cpd. 26, N-{[4-methyl-2-(piperidin-1-yl)phenyl](5-methylfuran-2-yl)methyl}-2-[2-(morpholin-4-yl)pyrimidin-5-yl]acetamide], which IC50 [1] is on record?
**A.** < 1 µM

**Q.** What about the IC50 (human RORγt) of the same compound?
**A.** 0.1 to 1 µM

**Q.** For COc1cc(CC(=O)NC(c2ccc(C)o2)c2ccc(C)cc2N2CCCCC2)ccc1N1CCS(=O)(=O)CC1 (stereo not drawn) [Cpd. 29, 2-[4-(1,1-dioxo-1-thiomorpholin-4-yl)-3-methoxyphenyl]-N-{[4-methyl-2-(piperidin-1-yl)phenyl](5-methylfuran-2-yl)methyl}acetamide], which IC50 [1] is on record?
**A.** < 1 µM

**Q.** And the IC50 (human RORγt)?
**A.** 0.1 to 1 µM

**Q.** With COc1ccc(CC(=O)NC(c2ccc(C)o2)c2ccc(C)cc2N2CCCCC2)cc1N1CCS(=O)(=O)CC1 (stereo not drawn) [Cpd. 30, 2-[3-(1,1-dioxo-1-thiomorpholin-4-yl)-4-methoxyphenyl]-N-{[4-methyl-2-(piperidin-1-yl)phenyl](5-methylfuran-2-yl)methyl}acetamide] as the compound, how does the IC50 [1] read?
**A.** 0.1 to 1 µM

**Q.** And the IC50 (human RORγt)?
**A.** 0.1 to 1 µM

**Q.** Cc1ccc(C(NC(=O)Cc2cnc(N3CCS(=O)(=O)CC3)nc2)c2ccc(C)o2)c(Br)c1 (stereo not drawn) [Cpd. 34, N-[(2-bromo-4-methylphenyl)(5-methylfuran-2-yl)methyl]-2-[2-(1,1-dioxo-1-thiomorpholin-4-yl)pyrimidin-5-yl]acetamide] was tested. Which IC50 [1] did it give?
**A.** 0.1 to 1 µM

**Q.** And the IC50 (human RORγt)?
**A.** 0.1 to 1 µM

**Q.** Which results are given for Cc1ccc(C(NC(=O)Cc2cnc(N3CCS(=O)(=O)CC3)nc2)c2ccc(C)o2)c(C)c1 (stereo not drawn) [Cpd. 35, N-[(2,4-dimethylphenyl)(5-methylfuran-2-yl)methyl]-2-[2-(1,1-dioxo-1-thiomorpholin-4-yl)pyrimidin-5-yl]acetamide]?
**A.** IC50 [1]: 0.1 to 1 µM; IC50 (human RORγt): 1 to 10 µM

**Q.** How did the IC50 [1] turn out when Cc1ccc(C(NC(=O)Cc2cnc(N3CCS(=O)(=O)CC3)nc2)c2ccc(C)o2)c(N2CC3CC3C2)c1 (stereo not drawn) [Cpd. 36, N-[(2-{3-azabicyclo[3.1.0]hexan-3-yl}-4-methylphenyl)(5-methylfuran-2-yl)methyl]-2-[2-(1,1-dioxo-1-thiomorpholin-4-yl)pyrimidin-5-yl]acetamide] was run?
**A.** < 1 µM

**Q.** And the IC50 (human RORγt)?
**A.** 0.1 to 1 µM

**Q.** With Cc1ccc(C(NC(=O)C2(c3ccc(N4CCS(=O)(=O)CC4)c(Br)c3)CC2)c2ccc(C)o2)c(N2CCCCC2)c1 (stereo not drawn) [Cpd. 37, 1-[3-bromo-4-(1,1-dioxo-1-thiomorpholin-4-yl)phenyl]-N-{[4-methyl-2-(piperidin-1-yl)phenyl](5-methylfuran-2-yl)methyl}cyclopropane-1-carboxamide] as the compound, how does the IC50 [1] read?
**A.** 0.1 to 1 µM

**Q.** And the IC50 (human RORγt)?
**A.** < 0.1 µM

**Q.** Cc1ccc(C(NC(=O)C(C)(C)c2ccc(N3CCS(=O)(=O)CC3)cc2)c2ccc(C)o2)c(C)c1 (stereo not drawn) [Cpd. 40, N-[(2,4-dimethylphenyl)(5-methylfuran-2-yl)methyl]-2-[4-(1,1-dioxo-1-thiomorpholin-4-yl)phenyl]-2-methylpropanamide] was tested. Which IC50 [1] did it give?
**A.** < 1 µM

**Q.** What about the IC50 (human RORγt) of the same compound?
**A.** 0.1 to 1 µM

**Q.** For Cc1ccc(C(NC(=O)C2(c3ccc(N4CCS(=O)(=O)CC4)cc3)CCC2)c2ccc(C)o2)c(C)c1 (stereo not drawn) [Cpd. 41, N-[(2,4-dimethylphenyl)(5-methylfuran-2-yl)methyl]-1-[4-(1,1-dioxo-1-thiomorpholin-4-yl)phenyl]cyclobutane-1-carboxamide], which IC50 [1] is on record?
**A.** < 1 µM

**Q.** What about the IC50 (human RORγt) of the same compound?
**A.** 0.1 to 1 µM

**Q.** Which results are given for Cc1ccc(C(NC(=O)Cc2cnc(N3CCS(=O)(=O)CC3)nc2C)c2ccc(C)o2)c(C)c1 (stereo not drawn) [Cpd. 42, N-[(2,4-dimethylphenyl)(5-methylfuran-2-yl)methyl]-2-[2-(1,1-dioxo-1-thiomorpholin-4-yl)-4-methylpyrimidin-5-yl]acetamide]?
**A.** IC50 [1]: 1 to 10 µM; IC50 (human RORγt): 1 to 10 µM

**Q.** What does the source list for Cc1ccc(C(NC(=O)Cc2ccc(O)c(N3CCS(=O)(=O)CC3)c2)c2ccc(C)o2)c(C)c1 (stereo not drawn) [Cpd. 43, N-[(2,4-dimethylphenyl)(5-methylfuran-2-yl)methyl]-2-[3-(1,1-dioxo-1-thiomorpholin-4-yl)-4-hydroxyphenyl]acetamide]?
**A.** IC50 [1]: < 1 µM; IC50 (human RORγt): 1 to 10 µM
